Test results published in patent US20230263822A1, “MODULATION OF FACTOR 11 EXPRESSION” (Ionis Pharmaceuticals, Inc., priority 2008, published 2023).
Strand notation (5' to 3'): a small letter for the sugar, then the base; units joined by * are phosphorothioate-linked, units joined directly phosphodiester-linked; [ ] holds rarer units or linkages, { } end groups; capitals alone tell only the bases. e = 2'-O-(2-methoxyethyl) (MOE); [5mC] = 5-methylcytosine; d = 2'-deoxy (DNA)

Tests used:
fibrinogen = assay: Fibrinogen assay (Example 45); assay type: in vivo, cynomolgus monkeys; conditions: plasma
Experimental: (§1) Groups, each consisting of two male and three female monkeys, were injected subcutaneously with ISIS 416838, ISIS 416850, ISIS 416858, ISIS 416864, or ISIS 417002 in escalating doses. Antisense oligonucleotide was administered to the monkeys at 5 mg/kg three times per a week for week 1; 5 mg/kg twice per week for weeks 2 and 3; 10 mg/kg three times per week for week 4; 10 mg/kg twice per week for weeks 5 and 6; 25 mg/kg three times per week for week 7; and 25 mg/kg twice per week for weeks 8, 9, 10, 11, and 12. One control group, consisting of two male and three female monkeys, was injected subcutaneously with PBS according to the same dosing regimen. An additional experimental group, consisting of two male and three female monkeys, was injected subcutaneously with ISIS 416850 in a chronic, lower dose regimen. Antisense oligonucleotide was administered to the monkeys at 5 mg/kg three times per week for week 1; 5 mg/kg twice per week for week 2 and 3; 10 mg/kg three times per week for week 4; and 10 mg/kg twice per week for weeks 5 to 12. Body weights were measured weekly. Blood samples were collected 14 days and 5 days before the start of treatment and subsequently once per week for Factor 11 protein activity analysis in plasma, fibrinogen measurement, PT and aPTT measurements, bleeding times, and measurement of various hematologic factors. On day 85, the monkeys were euthanized by exsanguination while under deep anesthesia, and organs harvested for further analysis.
Nine parts of fresh monkey plasma was collected into one part of trisodium citrate. The samples were evaluated of fibrinogen content using an ACL 9000 coagulation instrument (Instrumentation Laboratory, Italy). The ISIS oligonucleotide, ISIS 416850, given with the chronic dose regimen is distinguished from the other oligonucleotides with an asterisk (*).

[1] = Body and organ weights of cynomolgus monkeys (Example 45); assay type: in vivo
Experimental: as §1
Body weights were taken once weekly throughout the dosing regimen. […] Organ weights were taken after the animals were euthanized and livers, kidneys and spleens were harvested and weighed. […] The ISIS oligonucleotide, ISIS 416850, given with the chronic dose regimen is distinguished from the other oligonucleotides with an asterisk (*).

[2] = Tolerability in CD1 mice: hematology assays (Example 41); conditions: 50 mg/kg s.c. twice per week for 6 weeks, blood
[3] = Tolerability in CD1 mice: liver function, ALT, AST, bilirubin, albumin (Example 33); conditions: plasma, 50 mg/kg s.c. twice a week
Experimental: A control group of five mice was injected subcutaneously with PBS for 2 weeks. All experimental groups (i.e. ASO treated mice at 2, 4, 6 weeks) were compared to the control group (i.e. PBS, 2 weeks).
To evaluate the effect of ISIS oligonucleotides on hepatic function, plasma concentrations of transaminases were measured using an automated clinical chemistry analyzer (Hitachi Olympus AU400e, Melville, N.Y.). […] Plasma levels of bilirubin and albumin were also measured using the same clinical chemistry analyzer and expressed in mg/dL.

[4] = Tolerability in CD1 mice: kidney function (Example 43); assay type: in vivo; conditions: 50 mg/kg s.c. twice per week for 6 weeks, plasma
[5] = Tolerability in Sprague-Dawley rats: hematology assays (Example 44); assay type: in vivo; conditions: 50 mg/kg s.c. twice per week for 6 weeks, blood
[6] = day 8, chronic dose regimen (*)
[7] = day 15, chronic dose regimen (*)
[8] = day 15, escalating dose regimen
[9] = day 22, chronic dose regimen (*)
[10] = day 22, escalating dose regimen
[11] = day 29, chronic dose regimen (*)
[12] = day 29, escalating dose regimen
[13] = day 36, chronic dose regimen (*)
[14] = day 36, escalating dose regimen
[15] = day 43, chronic dose regimen (*)
[16] = day 43, escalating dose regimen
[17] = day 50, chronic dose regimen (*)
[18] = day 50, escalating dose regimen
[19] = day 57, escalating dose regimen
[20] = day 64, escalating dose regimen
[21] = day 71, escalating dose regimen
[22] = day 78, escalating dose regimen

## ISIS 416850: MOE gapmer, nucleobases 1275 to 1318 of SEQ ID NO: 1 (Table 8) (antisense TGCACAGTTTCTGGCAGGCC; MOE gapmer, wing and gap sizes not given here)
fibrinogen; [6]
  fibrinogen levels: 232 mg/dL
fibrinogen; day 8, escalating dose regimen
  fibrinogen levels: 281 mg/dL
fibrinogen; [7]
  fibrinogen levels: 174 mg/dL
fibrinogen; [8]
  fibrinogen levels: 270 mg/dL
fibrinogen; [9]
  fibrinogen levels: 192 mg/dL
fibrinogen; [10]
  fibrinogen levels: 243 mg/dL
fibrinogen; [11]
  fibrinogen levels: 192 mg/dL
fibrinogen; [12]
  fibrinogen levels: 234 mg/dL
fibrinogen; [13]
  fibrinogen levels: 185 mg/dL
fibrinogen; [14]
  fibrinogen levels: 232 mg/dL
fibrinogen; [15]
  fibrinogen levels: 194 mg/dL
fibrinogen; [16]
  fibrinogen levels: 219 mg/dL
fibrinogen; [17]
  fibrinogen levels: 204 mg/dL
fibrinogen; [18]
  fibrinogen levels: 215 mg/dL
fibrinogen; [19]
  fibrinogen levels: 186 mg/dL
fibrinogen; [20]
  fibrinogen levels: 190 mg/dL
fibrinogen; [21]
  fibrinogen levels: 178 mg/dL
fibrinogen; [22]
  fibrinogen levels: 177 mg/dL
fibrinogen; day 85, escalating dose regimen
  fibrinogen levels: 187 mg/dL
fibrinogen; day −5, chronic dose regimen (*)
  fibrinogen levels: 227 mg/dL
fibrinogen; day −5, escalating dose regimen
  fibrinogen levels: 261 mg/dL
fibrinogen; day −14, chronic dose regimen (*)
  fibrinogen levels: 274 mg/dL
fibrinogen; day −14, escalating dose regimen
  fibrinogen levels: 310 mg/dL
[1]; day 1, chronic dose regimen (*)
  body weights: 2665 g
[1]; day 1, escalating dose regimen
  body weights: 2572 g
[1]; [6]
  body weights: 2579 g
[1]; day 8, escalating dose regimen
  body weights: 2430 g
[1]; [7]
  body weights: 2607 g
[1]; [8]
  body weights: 2474 g
[1]; [9]
  body weights: 2661 g
[1]; [10]
  body weights: 2514 g
[1]; [11]
  body weights: 2667 g
[1]; [12]
  body weights: 2515 g
[1]; [13]
  body weights: 2656 g
[1]; [14]
  body weights: 2545 g
[1]; [15]
  body weights: 2670 g
[1]; [16]
  body weights: 2544 g
[1]; [17]
  body weights: 2679 g
[1]; [18]
  body weights: 2613 g
[1]; [19]
  body weights: 2629 g
[1]; [20]
  body weights: 2642 g
[1]; [21]
  body weights: 2769 g
[1]; [22]
  body weights: 2660 g
[2]
  HCT: 50%
  Lymphocyte: 4710
  Neutrophil: 1314
  Platelets: 614
  RBC: 9.8
  WBC: 6
  hemoglobin: 14.8 g/dL
[3]; 2 weeks
  ALT: 67 IU/L
  AST: 72 IU/L
  Albumin: 3.6
  Bilirubin: 0.46 mg/dL
[3]; 4 weeks
  ALT: 58 IU/L
  AST: 88 IU/L
  Albumin: 3.5
  Bilirubin: 0.23 mg/dL
[3]; 6 weeks
  ALT: 102 IU/L
  AST: 97 IU/L
  Albumin: 3.1
  Bilirubin: 0.22 mg/dL

## ISIS 449707: 3-8-3, 4-8-4, 2-10-2, 3-10-3 or 4-10-4 MOE microwalk gapmer (Table 46) (antisense e[5mC]*eA*e[5mC]*eA*dG*dT*dT*dT*d[5mC]*dT*dG*dG*e[5mC]*eA*eG*eG)
[4]
  BUN: 27 mg/dL
  Creatinine: 0.2 mg/dL
[5]
  Platelets: 722 nL⁻¹
  RBC: 6.0 pL⁻¹
  WBC: 20 nL⁻¹
  hematocrit: 40%
  hemoglobin: 12.0 g/dL
  lymphocytes: 91%
  monocytes: 2%
  neutrophils: 6%

## ISIS 449708: 3-8-3, 4-8-4, 2-10-2, 3-10-3 or 4-10-4 MOE microwalk gapmer (Table 46) (antisense eA*e[5mC]*eA*dG*dT*dT*dT*d[5mC]*dT*dG*dG*e[5mC]*eA*eG)
[4]
  BUN: 28 mg/dL
  Creatinine: 0.2 mg/dL
[5]
  Platelets: 925 nL⁻¹
  RBC: 6.6 pL⁻¹
  WBC: 22 nL⁻¹
  hematocrit: 40%
  hemoglobin: 12.2 g/dL
  lymphocytes: 92%
  monocytes: 2%
  neutrophils: 6%

## ISIS 449709: 3-8-3, 4-8-4, 2-10-2, 3-10-3 or 4-10-4 MOE microwalk gapmer (Table 46) (antisense eG*e[5mC]*eA*e[5mC]*dA*dG*dT*dT*dT*d[5mC]*dT*dG*dG*d[5mC]*eA*eG*eG*e[5mC])
[4]
  BUN: 34 mg/dL
  Creatinine: 0.3 mg/dL
[5]
  Platelets: 631 nL⁻¹
  RBC: 6.9 pL⁻¹
  WBC: 14 nL⁻¹
  hematocrit: 41%
  hemoglobin: 12.6 g/dL
  lymphocytes: 91%
  monocytes: 3%
  neutrophils: 5%

## ISIS 449710: 3-8-3, 4-8-4, 2-10-2, 3-10-3 or 4-10-4 MOE microwalk gapmer (Table 46) (antisense e[5mC]*eA*e[5mC]*dA*dG*dT*dT*dT*d[5mC]*dT*dG*dG*d[5mC]*eA*eG*eG)
[4]
  BUN: 29 mg/dL
  Creatinine: 0.2 mg/dL
[5]
  Platelets: 509 nL⁻¹
  RBC: 6.3 pL⁻¹
  WBC: 13 nL⁻¹
  hematocrit: 41%
  hemoglobin: 12.5 g/dL
  lymphocytes: 91%
  monocytes: 2%
  neutrophils: 6%

## ISIS 449711: 3-8-3, 4-8-4, 2-10-2, 3-10-3 or 4-10-4 MOE microwalk gapmer (Table 46) (antisense eA*e[5mC]*dA*dG*dT*dT*dT*d[5mC]*dT*dG*dG*d[5mC]*eA*eG)
[4]
  BUN: 26 mg/dL
  Creatinine: 0.2 mg/dL
[5]
  Platelets: 919 nL⁻¹
  RBC: 6.4 pL⁻¹
  WBC: 13 nL⁻¹
  hematocrit: 43%
  hemoglobin: 12.6 g/dL
  lymphocytes: 90%
  monocytes: 2%
  neutrophils: 7%
